# According to patent publication US20250361274A1, “PEPTIDE AND PEPTIDE-CONTAINING AGENT” (PEPTIDREAM INC., priority 2022, published 2025):
# “Also recorded” adds a separate entry of the source. Numbered stars: 1 amine (or outer) side, 2 acyl side, 3 side chain; on linkers, the order of the positions; unused ones are H or OH. Bridge positions count the residues as written; N and C are the ends. Square brackets hold non-standard residues; d marks the D form. Peptide text beside a SMILES is read from it. ξ: configuration not given here. X2 = O=C(C[C@@H](Cc1ccc(-c2ccccc2)cc1)C(=O)[*:2])[C@@H]1CCCN1[*:1]; Phe(4-COOH) = N[C@@H](Cc1ccc(C(=O)O)cc1)C(=O)O; Bip = N[C@@H](Cc1ccc(-c2ccccc2)cc1)C(=O)O; Nle(6-COOH) = N[C@@H](CCCCC(=O)O)C(=O)O; X1 = N=C(CN)NCCC[C@H](N[*:1])C(=O)[*:2]; Ala(4-THP) = N[C@@H](CC1CCOCC1)C(=O)O; ξE = NC(CCC(=O)O)C(=O)O; βAla = NCCC(=O)O
# What was measured:
# Type in all cases: cell-based
# [1] = target: T1, BMP6 (Homo sapiens, UniProt P22004); experiment: BMP family signal transduction inhibition (SMAD1 phosphorylation), BMP6 stimulus
# T1 sequence (P22004 375-513): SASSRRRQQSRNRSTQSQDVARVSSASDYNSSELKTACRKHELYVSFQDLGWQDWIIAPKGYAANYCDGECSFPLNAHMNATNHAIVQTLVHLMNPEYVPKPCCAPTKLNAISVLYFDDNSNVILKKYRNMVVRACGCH
# From the text: (§1) In the present Example, BMP4 signal transduction inhibition peptide No. 177, peptide No. 29986 (SEQ ID NO: 277 (Example 8)), and peptide SEQ ID NO: 417 (Example 6) synthesized in Example 2, Example 8, and Example 6 were verified in the same manner as in Example 13 in order to confirm presence or absence of signal transduction inhibitory activities obtained by BMPs 2, 5, 6, 9, 12, and 14 belonging to the respective BMP families.
# (§2) Regarding the concentrations of the respective BMPs in the evaluation, 0.3 nM of BMP2, 2 nM of BMP5, 3 nM of BMP6, 10 nM of BMP9 and BMP12, and 0.6 nM of BMP14 were added, followed by application of stimulus.
# (§3) Regarding No. 177, the concentrations of the peptides were as follows. Specifically, eight concentrations of the peptides were used at a common ratio of 1/3 starting from 10 nM (BMP2), starting from 200 nM (BMP5), starting from 100 nM (BMP6), starting from 1,000 nM (BMP9 and BMP12), and starting from 60 nM (BMP14). The evaluation was performed in the same manner as in Example 11 except for the above points. Note that recombinant Human Noggin Protein (R&D) as a positive control was used at the same concentration as the peptide.
# (§4) Regarding the peptide SEQ ID NO: 277 (Example 8), the concentrations of the peptides were as follows. […]
# [2] = target: T2, BMP2 (Homo sapiens, UniProt P12643); experiment: BMP family signal transduction inhibition (SMAD1 phosphorylation), BMP2 stimulus
# T2 sequence (P12643 283-396): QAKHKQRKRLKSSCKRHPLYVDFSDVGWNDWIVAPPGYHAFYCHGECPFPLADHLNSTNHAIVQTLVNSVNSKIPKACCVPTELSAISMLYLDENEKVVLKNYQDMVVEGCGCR
# From the text: as §1, §2, §3, §4
# [3] = target: T3, BMP5 (Homo sapiens, UniProt P22003); experiment: BMP family signal transduction inhibition (SMAD1 phosphorylation), BMP5 stimulus
# T3 sequence (P22003 317-454): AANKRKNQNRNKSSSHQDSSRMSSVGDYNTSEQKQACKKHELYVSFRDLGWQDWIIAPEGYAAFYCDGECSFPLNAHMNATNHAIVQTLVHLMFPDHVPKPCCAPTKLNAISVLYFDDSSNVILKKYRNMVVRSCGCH
# From the text: as §1, §2, §3, §4
# [4] = target: T4, BMP4 (Homo sapiens, UniProt P12644); experiment: BMP4 signal transduction inhibitory activity: SMAD1 phosphorylation by BMP4 stimulus, AlphaLISA SureFire, A549 cells
# T4 sequence (P12644 293-408): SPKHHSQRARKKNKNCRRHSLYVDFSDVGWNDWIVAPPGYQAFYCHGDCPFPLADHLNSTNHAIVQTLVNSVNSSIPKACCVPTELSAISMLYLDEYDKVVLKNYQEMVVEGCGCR
compound,measurement,setting,value
CC(C)[C@@H]1NC(=O)[C@H](CCCNC(=N)N)NC(=O)[C@H](CCCCC(=O)O)NC(=O)CSC[C@@H](C(=O)NCCC(=O)NC(CCC(=O)O)C(=O)O)NC(=O)[C@H](CO)NC(=O)[C@H](Cc2ccc(C(=O)O)cc2)NC(=O)[C@H](Cc2ccc(C(=O)O)cc2)NC(=O)[C@H](Cc2ccc(O)cc2)NC(=O)[C@H](Cc2ccc(-c3ccccc3)cc2)CC(=O)[C@@H]2CCCN2C(=O)[C@H](Cc2ccc(O)cc2)NC(=O)[C@@H]2CCCN2C(=O)[C@H](Cc2ccc(-c3ccccc3)cc2)NC(=O)[C@H](CCCNC(=N)CN)NC(=O)[C@H](CC(=O)O)NC(=O)[C@H](CC2CCOCC2)NC(=O)[C@H](Cc2ccc(C(=O)O)cc2)NC1=O (stereo partly drawn) [SEQ ID No. 177] ({CH2CO}-[Nle(6-COOH)]RV[Phe(4-COOH)][Ala(4-THP)]D[X1][Bip]PY[X2]Y[Phe(4-COOH)][Phe(4-COOH)]SC[βAla][ξE]-OH; thioether N-16),BMP6 signal transduction inhibitory activity (in words),[1],"signal transduction inhibitory activities of BMP2, BMP5, and BMP6"
same,BMP2 signal transduction inhibitory activity (in words),[2],"signal transduction inhibitory activities of BMP2, BMP5, and BMP6"
same,BMP5 signal transduction inhibitory activity (in words),[3],"signal transduction inhibitory activities of BMP2, BMP5, and BMP6"
same,BMP4 inhibitory activity (in words),[4],same level of the BMP4 inhibitory activity as Noggin; also recorded: signal transduction inhibitory activities of BMP4 and BMP7
same,IC50,"[4]; Table 2, eight concentrations, ratio 1/3 from 2 nM, A549 cells",0.053 nM
same,aLISA BMP4,"[4]; class of inhibition of SMAD1 phosphorylation by BMP4 stimulus, AlphaLISA, A549 cells",A (showed an inhibitory activity of 50% or more in a zone to which the peptide was added to in an amount of 0.2 nM)
